Key:
[1] = biological target: T1, Serine/threonine-protein kinase 4 (Homo sapiens) (UniProt Q13043); experiment: Inhibition of MST1 at 1 uM
T1 sequence (whole entry): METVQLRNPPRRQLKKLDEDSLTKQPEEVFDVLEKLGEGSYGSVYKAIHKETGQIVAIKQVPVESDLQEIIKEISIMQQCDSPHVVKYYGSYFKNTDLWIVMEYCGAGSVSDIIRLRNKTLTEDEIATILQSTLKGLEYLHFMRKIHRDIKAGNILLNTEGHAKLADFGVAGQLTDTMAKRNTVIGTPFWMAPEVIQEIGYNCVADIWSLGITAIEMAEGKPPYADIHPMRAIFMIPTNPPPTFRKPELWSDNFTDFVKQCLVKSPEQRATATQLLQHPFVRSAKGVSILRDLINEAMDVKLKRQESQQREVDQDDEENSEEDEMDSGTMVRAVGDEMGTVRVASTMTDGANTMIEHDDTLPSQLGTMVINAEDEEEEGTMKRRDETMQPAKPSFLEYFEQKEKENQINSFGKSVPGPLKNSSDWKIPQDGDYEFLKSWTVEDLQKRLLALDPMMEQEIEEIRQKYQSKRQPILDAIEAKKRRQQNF

[2] = biological target: T2, NUAK family SNF1-like kinase 1 (Homo sapiens) (UniProt O60285); experiment: Inhibition of ARK5 at 5 uM
T2 sequence (whole entry): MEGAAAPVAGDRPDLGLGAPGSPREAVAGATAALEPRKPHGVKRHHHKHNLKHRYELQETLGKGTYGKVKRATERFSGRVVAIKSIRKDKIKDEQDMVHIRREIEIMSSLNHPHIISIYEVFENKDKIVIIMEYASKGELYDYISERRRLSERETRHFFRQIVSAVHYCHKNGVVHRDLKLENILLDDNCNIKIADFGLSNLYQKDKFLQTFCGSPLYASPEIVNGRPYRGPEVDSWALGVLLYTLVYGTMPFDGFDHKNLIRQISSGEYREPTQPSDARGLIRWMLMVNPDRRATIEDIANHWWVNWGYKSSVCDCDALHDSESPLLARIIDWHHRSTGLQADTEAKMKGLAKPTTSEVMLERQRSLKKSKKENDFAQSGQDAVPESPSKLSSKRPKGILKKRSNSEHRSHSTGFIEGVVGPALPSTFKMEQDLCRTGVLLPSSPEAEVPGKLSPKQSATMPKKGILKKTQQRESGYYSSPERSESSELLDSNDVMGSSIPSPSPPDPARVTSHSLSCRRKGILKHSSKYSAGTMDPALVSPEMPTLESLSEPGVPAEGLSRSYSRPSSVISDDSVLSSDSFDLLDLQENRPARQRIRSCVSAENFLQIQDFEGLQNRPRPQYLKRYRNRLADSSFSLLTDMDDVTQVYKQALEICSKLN

[3] = biological target: T3, Serine/threonine-protein kinase Sgk1 (Homo sapiens) (UniProt O00141); experiment: Inhibition of SGK1 at 5 uM
T3 sequence (whole entry): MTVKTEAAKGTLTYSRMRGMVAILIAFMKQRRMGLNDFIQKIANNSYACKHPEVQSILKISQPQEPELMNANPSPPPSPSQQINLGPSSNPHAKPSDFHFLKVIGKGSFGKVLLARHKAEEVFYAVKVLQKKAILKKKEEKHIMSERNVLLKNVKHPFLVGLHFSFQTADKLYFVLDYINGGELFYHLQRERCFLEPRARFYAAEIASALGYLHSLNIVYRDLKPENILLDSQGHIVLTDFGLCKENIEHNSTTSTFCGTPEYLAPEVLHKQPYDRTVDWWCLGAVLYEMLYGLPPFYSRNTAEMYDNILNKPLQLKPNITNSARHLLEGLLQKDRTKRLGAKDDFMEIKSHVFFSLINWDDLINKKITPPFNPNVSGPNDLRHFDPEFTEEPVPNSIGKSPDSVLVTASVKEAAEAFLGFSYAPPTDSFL

[4] = biological target: T3, Serine/threonine-protein kinase Sgk1 (Homo sapiens); experiment: Inhibition of SGK1 at 1 uM
[5] = biological target: Serine/threonine-protein kinase PAK 1 (Homo sapiens) (UniProt Q13153); experiment: Inhibition of PAK1 at 1 uM
[6] = biological target: Dual specificity mitogen-activated protein kinase kinase 1 (Homo sapiens) (UniProt Q02750); experiment: Inhibition of MEK1 at 1 uM
[7] = biological target: Focal adhesion kinase 1 (Homo sapiens) (UniProt Q05397); experiment: Inhibition of FAK at 1 uM
[8] = biological target: Serine/threonine-protein kinase pim-2 (Homo sapiens) (UniProt Q9P1W9); experiment: Inhibition of PIM2 at 5 uM
[9] = biological target: Dual specificity mitogen-activated protein kinase kinase 1 (Homo sapiens) (UniProt Q02750); experiment: Inhibition of MEK1 at 5 uM
[10] = biological target: Serine/threonine-protein kinase mTOR (Homo sapiens, UniProt P42345); experiment: Inhibition of mTOR
[11] = Inhibition of PDGFR at 1 uM
[12] = system: Serine/threonine-protein kinase B-raf (Homo sapiens), P15056 [V600E]; experiment: Inhibition of BRAF V600E mutant at 1 uM
[13] = biological target: Fibroblast growth factor receptor 1 (Homo sapiens) (UniProt P11362); experiment: Inhibition of FGFR1 at 1 uM
[14] = biological target: Serine/threonine-protein kinase pim-2 (Homo sapiens) (UniProt Q9P1W9); experiment: Inhibition of PIM2 at 1 uM
[15] = biological target: Epidermal growth factor receptor (Homo sapiens) (UniProt P00533); experiment: Inhibition of EGFR at 5 uM
[16] = biological target: Insulin-like growth factor 1 receptor (Homo sapiens) (UniProt P08069); experiment: Inhibition of IGF1R at 5 uM
[17] = biological target: Mitogen-activated protein kinase 8 (Homo sapiens) (UniProt P45983); experiment: Inhibition of JNK1 at 1 uM
[18] = biological target: T2, NUAK family SNF1-like kinase 1 (Homo sapiens); experiment: Inhibition of ARK5 at 1 uM

Chain of Serine/threonine-protein kinase PAK 1 (Homo sapiens) (Q13153 whole entry): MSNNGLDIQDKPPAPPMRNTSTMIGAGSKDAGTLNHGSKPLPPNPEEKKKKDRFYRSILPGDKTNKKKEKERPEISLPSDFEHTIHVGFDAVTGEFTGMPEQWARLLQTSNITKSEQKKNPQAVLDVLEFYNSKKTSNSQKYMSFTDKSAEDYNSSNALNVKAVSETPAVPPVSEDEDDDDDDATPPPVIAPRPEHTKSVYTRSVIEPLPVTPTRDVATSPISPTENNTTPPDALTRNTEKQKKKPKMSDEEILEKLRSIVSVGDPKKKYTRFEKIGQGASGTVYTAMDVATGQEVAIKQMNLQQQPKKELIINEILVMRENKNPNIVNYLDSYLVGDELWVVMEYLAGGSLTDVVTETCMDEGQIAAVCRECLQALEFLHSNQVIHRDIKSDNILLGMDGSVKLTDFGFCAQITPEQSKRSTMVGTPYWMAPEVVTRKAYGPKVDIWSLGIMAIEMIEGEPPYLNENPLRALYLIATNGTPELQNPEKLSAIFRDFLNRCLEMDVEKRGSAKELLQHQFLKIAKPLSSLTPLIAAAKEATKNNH
Chain of Epidermal growth factor receptor (Homo sapiens) (P00533 whole entry): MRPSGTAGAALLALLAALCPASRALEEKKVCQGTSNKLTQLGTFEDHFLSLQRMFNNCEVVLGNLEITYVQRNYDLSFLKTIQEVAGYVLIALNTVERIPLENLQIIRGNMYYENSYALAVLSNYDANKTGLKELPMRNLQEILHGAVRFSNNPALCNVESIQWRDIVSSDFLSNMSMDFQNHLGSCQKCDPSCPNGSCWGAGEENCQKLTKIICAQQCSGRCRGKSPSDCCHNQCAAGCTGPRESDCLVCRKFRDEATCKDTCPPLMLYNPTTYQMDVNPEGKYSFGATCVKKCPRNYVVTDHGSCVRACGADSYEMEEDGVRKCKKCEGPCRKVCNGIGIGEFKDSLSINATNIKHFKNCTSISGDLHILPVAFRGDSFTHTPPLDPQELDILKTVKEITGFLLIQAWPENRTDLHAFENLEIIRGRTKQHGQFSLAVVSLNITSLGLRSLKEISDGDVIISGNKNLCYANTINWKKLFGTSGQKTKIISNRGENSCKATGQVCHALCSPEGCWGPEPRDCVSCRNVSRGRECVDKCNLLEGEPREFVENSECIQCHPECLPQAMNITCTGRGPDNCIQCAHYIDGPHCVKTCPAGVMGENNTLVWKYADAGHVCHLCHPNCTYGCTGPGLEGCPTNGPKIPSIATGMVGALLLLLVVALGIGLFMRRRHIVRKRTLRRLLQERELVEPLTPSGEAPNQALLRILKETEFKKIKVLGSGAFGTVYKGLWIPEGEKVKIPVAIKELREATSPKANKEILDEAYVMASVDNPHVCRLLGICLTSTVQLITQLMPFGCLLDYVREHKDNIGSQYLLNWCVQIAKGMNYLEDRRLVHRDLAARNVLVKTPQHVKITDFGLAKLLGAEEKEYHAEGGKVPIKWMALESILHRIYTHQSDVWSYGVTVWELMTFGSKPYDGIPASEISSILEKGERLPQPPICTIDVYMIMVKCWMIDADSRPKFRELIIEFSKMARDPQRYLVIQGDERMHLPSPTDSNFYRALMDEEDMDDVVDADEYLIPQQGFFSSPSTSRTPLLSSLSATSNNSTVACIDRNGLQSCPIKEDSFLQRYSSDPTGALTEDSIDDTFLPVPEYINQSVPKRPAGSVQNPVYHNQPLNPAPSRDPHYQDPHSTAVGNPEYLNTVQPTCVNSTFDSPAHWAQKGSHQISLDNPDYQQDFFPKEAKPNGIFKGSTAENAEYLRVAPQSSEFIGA
Chain of Focal adhesion kinase 1 (Homo sapiens) (Q05397 2-1052 limits assumed): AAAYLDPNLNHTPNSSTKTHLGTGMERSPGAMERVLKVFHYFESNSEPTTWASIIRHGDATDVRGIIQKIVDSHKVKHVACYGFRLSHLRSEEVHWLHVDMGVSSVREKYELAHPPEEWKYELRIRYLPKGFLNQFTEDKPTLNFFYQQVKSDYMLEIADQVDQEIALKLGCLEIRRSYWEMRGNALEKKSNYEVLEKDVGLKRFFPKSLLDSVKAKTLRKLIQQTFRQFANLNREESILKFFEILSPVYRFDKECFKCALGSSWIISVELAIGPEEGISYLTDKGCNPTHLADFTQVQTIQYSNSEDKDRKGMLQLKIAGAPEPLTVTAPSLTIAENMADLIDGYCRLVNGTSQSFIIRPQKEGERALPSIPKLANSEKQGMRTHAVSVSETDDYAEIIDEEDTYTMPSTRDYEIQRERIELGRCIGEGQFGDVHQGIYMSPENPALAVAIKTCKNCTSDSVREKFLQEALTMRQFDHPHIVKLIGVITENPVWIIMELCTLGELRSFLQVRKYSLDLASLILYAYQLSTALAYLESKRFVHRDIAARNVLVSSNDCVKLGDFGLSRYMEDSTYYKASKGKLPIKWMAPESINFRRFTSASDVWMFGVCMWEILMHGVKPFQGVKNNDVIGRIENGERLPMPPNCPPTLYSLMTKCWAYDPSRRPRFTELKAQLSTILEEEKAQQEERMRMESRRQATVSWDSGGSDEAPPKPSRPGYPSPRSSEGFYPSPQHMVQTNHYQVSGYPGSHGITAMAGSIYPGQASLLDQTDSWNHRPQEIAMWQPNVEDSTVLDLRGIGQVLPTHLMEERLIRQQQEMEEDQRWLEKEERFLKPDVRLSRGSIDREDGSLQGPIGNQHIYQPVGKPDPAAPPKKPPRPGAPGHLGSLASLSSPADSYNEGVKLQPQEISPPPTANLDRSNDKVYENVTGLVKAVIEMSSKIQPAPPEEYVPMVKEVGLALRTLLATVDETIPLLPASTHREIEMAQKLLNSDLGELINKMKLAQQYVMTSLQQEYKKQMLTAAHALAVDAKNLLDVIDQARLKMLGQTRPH
Chain of Fibroblast growth factor receptor 1 (Homo sapiens) (P11362 22-822 limits assumed): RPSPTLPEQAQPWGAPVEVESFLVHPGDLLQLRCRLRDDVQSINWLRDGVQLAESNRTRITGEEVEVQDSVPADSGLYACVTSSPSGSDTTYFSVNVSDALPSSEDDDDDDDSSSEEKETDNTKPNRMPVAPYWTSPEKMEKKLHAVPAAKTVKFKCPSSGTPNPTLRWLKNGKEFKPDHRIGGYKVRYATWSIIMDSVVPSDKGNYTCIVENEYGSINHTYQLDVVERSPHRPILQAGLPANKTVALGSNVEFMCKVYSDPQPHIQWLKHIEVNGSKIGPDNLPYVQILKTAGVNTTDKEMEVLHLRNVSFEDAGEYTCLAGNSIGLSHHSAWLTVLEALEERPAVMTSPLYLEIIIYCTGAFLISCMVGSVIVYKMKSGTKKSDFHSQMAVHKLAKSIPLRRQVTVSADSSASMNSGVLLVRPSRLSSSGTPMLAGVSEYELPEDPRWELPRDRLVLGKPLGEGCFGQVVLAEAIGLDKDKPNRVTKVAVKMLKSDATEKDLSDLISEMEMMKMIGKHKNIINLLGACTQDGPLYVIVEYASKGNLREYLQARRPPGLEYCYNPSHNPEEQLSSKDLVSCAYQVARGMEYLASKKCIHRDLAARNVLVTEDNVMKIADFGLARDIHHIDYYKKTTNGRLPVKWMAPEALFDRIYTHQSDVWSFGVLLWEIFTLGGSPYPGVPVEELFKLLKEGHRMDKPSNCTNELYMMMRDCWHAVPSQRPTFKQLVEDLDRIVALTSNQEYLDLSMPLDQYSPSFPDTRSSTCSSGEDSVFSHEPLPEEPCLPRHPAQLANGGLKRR
Chain of Serine/threonine-protein kinase B-raf (Homo sapiens), P15056 [V600E] (P15056 whole entry V600E): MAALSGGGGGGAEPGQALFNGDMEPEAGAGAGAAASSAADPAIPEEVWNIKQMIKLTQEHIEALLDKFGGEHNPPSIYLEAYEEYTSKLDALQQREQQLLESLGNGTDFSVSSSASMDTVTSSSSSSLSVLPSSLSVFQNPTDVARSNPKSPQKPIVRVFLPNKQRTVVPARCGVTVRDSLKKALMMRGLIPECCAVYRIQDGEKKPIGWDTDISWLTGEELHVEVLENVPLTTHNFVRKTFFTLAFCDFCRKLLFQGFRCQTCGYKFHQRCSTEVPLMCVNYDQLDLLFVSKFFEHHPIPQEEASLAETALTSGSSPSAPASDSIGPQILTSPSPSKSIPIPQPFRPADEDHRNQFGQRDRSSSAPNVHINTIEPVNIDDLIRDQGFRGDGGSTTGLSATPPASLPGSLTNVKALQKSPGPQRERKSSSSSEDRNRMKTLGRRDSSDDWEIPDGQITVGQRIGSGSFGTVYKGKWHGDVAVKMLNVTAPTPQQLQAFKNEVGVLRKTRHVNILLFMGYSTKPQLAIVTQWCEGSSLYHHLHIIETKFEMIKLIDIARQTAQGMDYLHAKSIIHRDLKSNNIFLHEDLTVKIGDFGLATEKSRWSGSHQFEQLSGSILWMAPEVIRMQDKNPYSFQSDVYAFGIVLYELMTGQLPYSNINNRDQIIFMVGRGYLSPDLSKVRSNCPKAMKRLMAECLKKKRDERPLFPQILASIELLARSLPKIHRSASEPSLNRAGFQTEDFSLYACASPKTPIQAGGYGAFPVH
Chain of Mitogen-activated protein kinase 8 (Homo sapiens) (P45983 whole entry): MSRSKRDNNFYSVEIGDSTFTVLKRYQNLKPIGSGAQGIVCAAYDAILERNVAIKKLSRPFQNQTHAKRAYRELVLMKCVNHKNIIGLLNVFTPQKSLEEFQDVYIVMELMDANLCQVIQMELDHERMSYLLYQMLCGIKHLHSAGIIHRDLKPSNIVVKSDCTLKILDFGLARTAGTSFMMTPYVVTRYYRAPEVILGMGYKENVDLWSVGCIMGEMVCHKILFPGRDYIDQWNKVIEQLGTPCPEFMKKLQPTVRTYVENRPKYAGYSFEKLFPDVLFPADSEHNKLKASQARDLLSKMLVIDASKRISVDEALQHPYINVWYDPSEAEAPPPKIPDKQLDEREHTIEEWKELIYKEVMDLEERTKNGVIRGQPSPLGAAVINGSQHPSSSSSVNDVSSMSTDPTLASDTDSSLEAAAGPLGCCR

Row | Compound | inhibition [1] | inhibition [2] | inhibition [3] | inhibition [4] | inhibition [5] | inhibition [6] | inhibition [7] | inhibition [8] | inhibition [9] | IC50 [10] | inhibition [11] | inhibition [12] | inhibition [13] | inhibition [14] | inhibition [15] | inhibition [16] | inhibition [17] | inhibition [18]
1 | CS(=O)(=O)N1CCN(Cc2cn3c(Cl)c(-c4cnc(N)nc4)nc(N4CCOCC4)c3n2)CC1 | < 30% | < 30% | < 30% | < 30% | < 30% | < 30% | < 30% | < 30% | < 30% | 5.71 µM | < 30% | < 30% | < 30% | < 30% | < 30% | < 30% | < 30% | < 30%
2 | Cc1nc(N)ncc1-c1cn2cc(CN3CCN(S(C)(=O)=O)CC3)nc2c(N2CCOCC2)n1 | < 30% | < 30% | < 30% | < 30% | < 30% | < 30% | < 30% | < 30% | < 30% | – | < 30% | < 30% | < 30% | < 30% | < 30% | < 30% | < 30% | < 30%
3 | CS(=O)(=O)N1CCN(Cc2cn3cc(-c4cnc(N)nc4)nc(N4CCOCC4)c3n2)CC1 | < 30% | < 30% | < 30% | < 30% | < 30% | < 30% | < 30% | < 30% | < 30% | 4.88 µM | < 30% | < 30% | < 30% | < 30% | < 30% | < 30% | < 30% | < 30%

Other lines, results leading:

Row | inhibition [1] | inhibition [2] | inhibition [3] | inhibition [4] | inhibition [5] | inhibition [6] | inhibition [7] | inhibition [8] | inhibition [9] | IC50 [10] | inhibition [11] | inhibition [12] | inhibition [13] | inhibition [14] | inhibition [15] | inhibition [16] | inhibition [17] | inhibition [18] | Compound
4 | < 30% | < 30% | < 30% | < 30% | < 30% | < 30% | < 30% | < 30% | < 30% | 1.26 µM | < 30% | < 30% | < 30% | < 30% | < 30% | < 30% | < 30% | < 30% | Cc1c(CN2CCN(S(C)(=O)=O)CC2)nc2c(N3CCOCC3)nc(-c3cnc(N)nc3)cn12
5 | < 30% | < 30% | < 30% | < 30% | < 30% | < 30% | < 30% | < 30% | < 30% | 5.1 µM | < 30% | < 30% | < 30% | < 30% | < 30% | < 30% | < 30% | < 30% | CS(=O)(=O)N1CCN(Cc2nc3c(N4CCOCC4)nc(-c4cnc(N)nc4)cn3c2Br)CC1
